Experimental findings from patent publication US3985764A, “Production of fused oxazoline azetidinones” (Queen's University, priority 1974, dated 1976) are described below.

For the test, the system named is S. lutea. The test is described as follows: antibacterial activity vs. S. lutea (plate assay). The format is cell-based. The note with it: versus S. lutea.

The structures appear in SMILES notation.

`CC1(C)O[C@@H]2[C@H](N3C(=O)c4ccccc4C3=O)C(=O)N2[C@H]1C(=O)O` [6-phthalimido oxapenicillin]: the “antibacterial activity relative to phthalimidopenicillin” value was “one-tenth the level of phthalimidopenicillin”.
